Reference: patent publication US20100190846A1, “MICROBICIDAL AGENT AND MICROBICIDAL COMPOSITION” (priority 2006, published 2010)

What was measured:
Assay in all cases: Agar dilution method microbicidal test; on Growth on agar plate: key: +: grew; −: did not grow
Format in all cases: cell-based
Streptococcus pyogenes = system: Streptococcus pyogenes; on Growth on agar plate: key: +: grew; −: did not grow
How it was run: (§1)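 Plate-based MIC determination: 10 μL aliquots of 100-fold diluted MHB cultures inoculated onto compound-containing BHI agar (0.25–4.0 mg/mL final), then incubated overnight (18 hours, 37° C).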

Escherichia coli = system: Escherichia coli; on Growth on agar plate: key: +: grew; −: did not grow
How it was run: (§2)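 Compound stocks in DMSO mixed into BHI agar → plates at 4.0 to 0.25 mg/mL final; MHB suspensions (turbidity 1, 10^8/mL) diluted 100-fold, 10 μL spotted; 37° C, 18 h; MIC = lowest growth-inhibiting conc.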

Staphylococcus aureus = system: Staphylococcus aureus; on Growth on agar plate: key: +: grew; −: did not grow
How it was run: as §1

Bacillus cereus = system: Bacillus cereus; on Growth on agar plate: key: +: grew; −: did not grow
How it was run: as §2

Pseudomonas aeruginosa = system: Pseudomonas aeruginosa; on Growth on agar plate: key: +: grew; −: did not grow
How it was run: as §2

Streptococcus pneumoniae = system: Streptococcus pneumoniae; on Growth on agar plate: key: +: grew; −: did not grow
How it was run: as §1

[1] = system: Bacillus subtilis ATCC6633; conditions: Bacillus subtilis ATCC 6633; on Growth on agar plate: key: +: grew; −: did not grow
How it was run: as §2

catechin [reference compound]
Growth on agar plate (Streptococcus pyogenes; 0.25 mg/mL): +
Growth on agar plate (Streptococcus pyogenes; 0.5 mg/mL): +
Growth on agar plate (Streptococcus pyogenes; 1.0 mg/mL): +
Growth on agar plate (Streptococcus pyogenes; 2.0 mg/mL): −
Growth on agar plate (Streptococcus pyogenes; 3.0 mg/mL): −
Growth on agar plate (Streptococcus pyogenes; 4.0 mg/mL): −
MIC (Streptococcus pyogenes; BHI agar, 37° C., 18 hours): 2000 µg/mL
Growth on agar plate (Escherichia coli; 0.25 mg/mL): +
Growth on agar plate (Escherichia coli; 0.5 mg/mL): +
Growth on agar plate (Escherichia coli; 1.0 mg/mL): +
Growth on agar plate (Escherichia coli; 2.0 mg/mL): +
Growth on agar plate (Escherichia coli; 3.0 mg/mL): +
Growth on agar plate (Escherichia coli; 4.0 mg/mL): +
MIC (Escherichia coli; BHI agar, 37° C., 18 hours): 2000 µg/mL
Growth on agar plate (Staphylococcus aureus; 0.25 mg/mL): +
Growth on agar plate (Staphylococcus aureus; 0.5 mg/mL): +
Growth on agar plate (Staphylococcus aureus; 1.0 mg/mL): −
Growth on agar plate (Staphylococcus aureus; 2.0 mg/mL): −
Growth on agar plate (Staphylococcus aureus; 3.0 mg/mL): −
Growth on agar plate (Staphylococcus aureus; 4.0 mg/mL): −
MIC (Staphylococcus aureus; BHI agar, 37° C., 18 hours): 1000 µg/mL
Growth on agar plate (Bacillus cereus; 0.25 mg/mL): +
Growth on agar plate (Bacillus cereus; 0.5 mg/mL): +
Growth on agar plate (Bacillus cereus; 1.0 mg/mL): −
Growth on agar plate (Bacillus cereus; 2.0 mg/mL): −
Growth on agar plate (Bacillus cereus; 3.0 mg/mL): −
Growth on agar plate (Bacillus cereus; 4.0 mg/mL): −
MIC (Bacillus cereus; BHI agar, 37° C., 18 hours): 1000 µg/mL
Growth on agar plate (Pseudomonas aeruginosa; 0.25 mg/mL): +
Growth on agar plate (Pseudomonas aeruginosa; 0.5 mg/mL): +
Growth on agar plate (Pseudomonas aeruginosa; 1.0 mg/mL): −
Growth on agar plate (Pseudomonas aeruginosa; 2.0 mg/mL): −
Growth on agar plate (Pseudomonas aeruginosa; 3.0 mg/mL): −
Growth on agar plate (Pseudomonas aeruginosa; 4.0 mg/mL): −
MIC (Pseudomonas aeruginosa; BHI agar, 37° C., 18 hours): 1000 µg/mL
Growth on agar plate (Streptococcus pneumoniae; 0.25 mg/mL): +
Growth on agar plate (Streptococcus pneumoniae; 0.5 mg/mL): +
Growth on agar plate (Streptococcus pneumoniae; 1.0 mg/mL): −
Growth on agar plate (Streptococcus pneumoniae; 2.0 mg/mL): −
Growth on agar plate (Streptococcus pneumoniae; 3.0 mg/mL): −
Growth on agar plate (Streptococcus pneumoniae; 4.0 mg/mL): −
MIC (Streptococcus pneumoniae; BHI agar, 37° C., 18 hours): 1000 µg/mL
Growth on agar plate ([1]; 0.25 mg/mL): +
Growth on agar plate ([1]; 0.5 mg/mL): +
Growth on agar plate ([1]; 1.0 mg/mL): +
Growth on agar plate ([1]; 2.0 mg/mL): +
Growth on agar plate ([1]; 3.0 mg/mL): −
Growth on agar plate ([1]; 4.0 mg/mL): −
MIC ([1]; BHI agar, 37° C., 18 hours): 3000 µg/mL
